Source: ChEMBL document CHEMBL3390836, “Mannich- and LedererManasse-based analogues of the natural product S-(+)-curcuphenol as cancer proliferation and migration inhibitors” (Medchemcomm, 2012)

Tests used:
Assay type in all cases: functional
[1] = test system: NCI-H460; assay: Cytotoxicity against human NCI-H460 cells assessed as cell growth at 10^-6 M after 48 hrs by SRB assay relative to control; details: NCI-H460, 48 h, read-out: Activity
[2] = Cytotoxicity against human UO31 cells assessed as cell growth at 10^-8 M after 48 hrs by SRB assay relative to control; details: UO-31, 48 h, read-out: Activity
[3] = test system: SK-MEL-2; assay: Cytotoxicity against human SK-MEL-2 cells assessed as cell growth at 10^-7 M after 48 hrs by SRB assay relative to control; details: SK-MEL-2, 48 h, read-out: Activity
[4] = Cytotoxicity against human OVCAR4 cells assessed as cell growth at 10^-4 M after 48 hrs by SRB assay relative to control; details: OVCAR-4, 48 h, read-out: Activity
[5] = test system: NCI-H322M; assay: Cytotoxicity against human NCI-H322M cells assessed as cell growth at 10^-8 M after 48 hrs by SRB assay relative to control; details: read-out: Activity
[6] = Cytotoxicity against human OVCAR4 cells after 48 hrs by SRB assay; details: OVCAR-4, 48 h
[7] = test system: MDA-MB-435; assay: Cytotoxicity against human MDA-MB-435 cells assessed as cell growth at 10^-4 M after 48 hrs by SRB assay relative to control; details: MDA-MB-435, 48 h, read-out: Activity
[8] = test system: RPMI-8226; assay: Cytotoxicity against human RPMI8226 cells assessed as cell growth at 10^-8 M after 48 hrs by SRB assay relative to control; details: RPMI-8226, 48 h, read-out: Activity
[9] = test system: TK-10; assay: Cytotoxicity against human TK10 cells assessed as cell growth at 10^-4 M after 48 hrs by SRB assay relative to control; details: TK-10, 48 h, read-out: Activity
[10] = Cytotoxicity against human EKVX cells assessed as cell growth at 10^-6 M after 48 hrs by SRB assay relative to control; details: read-out: Activity
[11] = test system: SNB-75; assay: Cytotoxicity against human SNB75 cells assessed as cell growth at 10^-8 M after 48 hrs by SRB assay relative to control; details: SNB-75, 48 h, read-out: Activity
[12] = Cytotoxicity against human OVCAR5 cells assessed as cell growth at 10^-7 M after 48 hrs by SRB assay relative to control; details: OVCAR-5, 48 h, read-out: Activity
[13] = test system: KM12; assay: Cytotoxicity against human KM12 cells assessed as cell growth at 10^-8 M after 48 hrs by SRB assay relative to control; details: KM12, 48 h, read-out: Activity
[14] = Cytotoxicity against human OVCAR8 cells after 48 hrs by SRB assay; details: OVCAR-8, 48 h; for CC50: read-out: LC50 (the source's name)
[15] = test system: HT-29; assay: Cytotoxicity against human HT-29 cells after 48 hrs by SRB assay; details: HT-29, 48 h; for CC50: read-out: LC50 (the source's name)
[16] = test system: A549; assay: Cytotoxicity against human A549 cells assessed as cell growth at 10^-4 M after 48 hrs by SRB assay relative to control; details: A549, 48 h, read-out: Activity
[17] = Cytotoxicity against human HCT15 cells assessed as cell growth at 10^-7 M after 48 hrs by SRB assay relative to control; details: HCT-15, 48 h, read-out: Activity
[18] = test system: SW-620; assay: Cytotoxicity against human SW620 cells assessed as cell growth at 10^-8 M after 48 hrs by SRB assay relative to control; details: SW-620, 48 h, read-out: Activity
[19] = test system: SK-MEL-28; assay: Cytotoxicity against human SK-MEL-28 cells assessed as cell growth at 10^-7 M after 48 hrs by SRB assay relative to control; details: SK-MEL-28, 48 h, read-out: Activity
[20] = Cytotoxicity against human Hs 578T cells assessed as cell growth at 10^-4 M after 48 hrs by SRB assay relative to control; details: read-out: Activity
[21] = test system: NCI-H226; assay: Cytotoxicity against human NCI-H226 cells assessed as cell growth at 10^-4 M after 48 hrs by SRB assay relative to control; details: NCI-H226, 48 h, read-out: Activity
[22] = Cytotoxicity against human UO31 cells assessed as cell growth at 10^-7 M after 48 hrs by SRB assay relative to control; details: UO-31, 48 h, read-out: Activity
[23] = test system: SN12C; assay: Cytotoxicity against human SN12C cells assessed as cell growth at 10^-7 M after 48 hrs by SRB assay relative to control; details: read-out: Activity
[24] = test system: SF-539; assay: Cytotoxicity against human SF539 cells assessed as cell growth at 10^-8 M after 48 hrs by SRB assay relative to control; details: SF-539, 48 h, read-out: Activity
[25] = test system: NCI-H23; assay: Cytotoxicity against human NCI-H23 cells assessed as cell growth at 10^-8 M after 48 hrs by SRB assay relative to control; details: NCI-H23, 48 h, read-out: Activity
[26] = test system: SK-MEL-2; assay: Cytotoxicity against human SK-MEL-2 cells assessed as cell growth at 10^-8 M after 48 hrs by SRB assay relative to control; details: SK-MEL-2, 48 h, read-out: Activity
[27] = test system: MCF7; assay: Cytotoxicity against human MCF7 cells assessed as cell growth at 10^-6 M after 48 hrs by SRB assay relative to control; details: MCF7, 48 h, read-out: Activity
[28] = test system: Malme-3M; assay: Cytotoxicity against human MALME-3M cells assessed as cell growth at 10^-4 M after 48 hrs by SRB assay relative to control; details: read-out: Activity
[29] = test system: BT-549; assay: Cytotoxicity against human BT549 cells assessed as cell growth at 10^-6 M after 48 hrs by SRB assay relative to control; details: BT-549, 48 h, read-out: Activity
[30] = test system: BT-549; assay: Cytotoxicity against human BT549 cells after 48 hrs by SRB assay; details: BT-549, 48 h; for CC50: read-out: LC50 (the source's name)
[31] = test system: BT-549; assay: Cytotoxicity against human BT549 cells assessed as cell growth at 10^-4 M after 48 hrs by SRB assay relative to control; details: BT-549, 48 h, read-out: Activity
[32] = test system: NCI-H522; assay: Cytotoxicity against human NCI-H522 cells assessed as cell growth at 10^-6 M after 48 hrs by SRB assay relative to control; details: NCI-H522, 48 h, read-out: Activity
[33] = Cytotoxicity against human PC3 cells assessed as cell growth at 10^-7 M after 48 hrs by SRB assay relative to control; details: PC-3, 48 h, read-out: Activity
[34] = test system: NCI-H522; assay: Cytotoxicity against human NCI-H522 cells assessed as cell growth at 10^-8 M after 48 hrs by SRB assay relative to control; details: NCI-H522, 48 h, read-out: Activity
[35] = Cytotoxicity against human Hs 578T cells assessed as cell growth at 10^-7 M after 48 hrs by SRB assay relative to control; details: read-out: Activity
[36] = test system: SR; assay: Cytotoxicity against human SR cells assessed as cell growth at 10^-8 M after 48 hrs by SRB assay relative to control; details: read-out: Activity
[37] = test system: SR; assay: Cytotoxicity against human SR cells assessed as cell growth at 10^-4 M after 48 hrs by SRB assay relative to control; details: read-out: Activity

SMILES: COc1ccc(CCN2COc3c([C@@H](C)CCC=C(C)C)ccc(C)c3C2)cc1OC
- growth at 1 µM [1]: 99%
- growth at 0.01 µM [2]: 86%
- growth at 0.1 µM [3]: 85%
- growth at 100 µM [4]: -45%
- growth at 0.01 µM [5]: 87%
- GI50 [6]: 2.89 µM
- LC50 [6]: > 100 µM
- TGI [6]: 16 µM
- growth at 100 µM [7]: -78%
- growth at 0.01 µM [8]: 93%
- growth at 100 µM [9]: -88%
- growth at 1 µM [10]: 91%
- growth at 0.01 µM [11]: 79%
- growth at 0.1 µM [12]: 98%
- growth at 0.01 µM [13]: 98%
- GI50 [14]: 4.21 µM
- TGI [14]: 20.2 µM
- CC50 [14]: 89.5 µM
- GI50 [15]: 2.2 µM
- TGI [15]: 5.73 µM
- CC50 [15]: 22.4 µM
- growth at 100 µM [16]: -52%
- growth at 0.1 µM [17]: 86%
- growth at 0.01 µM [18]: 97%
- growth at 0.1 µM [19]: 84%
- growth at 100 µM [20]: -66%
- growth at 100 µM [21]: -93%
- growth at 0.1 µM [22]: 92%
- growth at 0.1 µM [23]: 89%
- growth at 0.01 µM [24]: 95%
- growth at 0.01 µM [25]: 97%
- growth at 0.01 µM [26]: 93%
- growth at 1 µM [27]: 99%
- growth at 100 µM [28]: -88%

SMILES: CC(C)=CCC[C@H](C)c1ccc(C)c2c1OCN(CC1CCNCC1)C2
- growth at 1 µM [29]: 104%
- growth at 1 µM [1]: 113%
- growth at 0.01 µM [2]: 95%
- growth at 0.1 µM [3]: 111%
- GI50 [30]: 16.9 µM
- TGI [30]: 41.6 µM
- CC50 [30]: > 100 µM
- growth at 100 µM [4]: -91%
- growth at 0.01 µM [5]: 98%
- GI50 [6]: 16 µM
- LC50 [6]: 58.9 µM
- TGI [6]: 30.7 µM
- growth at 100 µM [7]: -83%
- growth at 0.01 µM [8]: 99%
- growth at 100 µM [9]: -87%
- growth at 100 µM [31]: -49%
- growth at 1 µM [10]: 94%
- growth at 0.01 µM [11]: 92%
- growth at 0.1 µM [12]: 87%
- growth at 1 µM [32]: 97%
- growth at 0.01 µM [13]: 99%
- GI50 [14]: 18.4 µM
- TGI [14]: 34.5 µM
- CC50 [14]: 64.6 µM
- growth at 0.1 µM [33]: 100%
- growth at 0.01 µM [34]: 87%
- GI50 [15]: 3 µM
- TGI [15]: 8.38 µM
- CC50 [15]: 53 µM
- growth at 0.1 µM [35]: 102%
- growth at 100 µM [16]: -84%
- growth at 0.1 µM [17]: 91%
- growth at 0.01 µM [18]: 96%
- growth at 0.01 µM [36]: 95%
- growth at 0.1 µM [19]: 101%
- growth at 100 µM [37]: -42%
- growth at 100 µM [20]: -75%
- growth at 100 µM [21]: -84%
- growth at 0.1 µM [22]: 94%
- growth at 0.1 µM [23]: 102%
- growth at 0.01 µM [24]: 91%
- growth at 0.01 µM [25]: 94%
- growth at 0.01 µM [26]: 108%
- growth at 1 µM [27]: 104%
- growth at 100 µM [28]: -76%

SMILES: CC(C)=CCC[C@H](C)c1ccc(C)c(CNCC2CCNCC2)c1O
- growth at 1 µM [29]: 81%
- growth at 1 µM [1]: 102%
- growth at 0.01 µM [2]: 88%
- growth at 0.1 µM [3]: 97%
- GI50 [30]: 9.72 µM
- TGI [30]: > 25 µM
- CC50 [30]: > 25 µM
- growth at 100 µM [4]: 44%
- growth at 0.01 µM [5]: 99%
- GI50 [6]: 18.2 µM
- LC50 [6]: > 25 µM
- TGI [6]: > 25 µM
- growth at 100 µM [7]: -66%
- growth at 100 µM [9]: -15%
- growth at 100 µM [31]: 22%
- growth at 1 µM [10]: 92%
- growth at 0.01 µM [11]: 90%
- growth at 0.1 µM [12]: 96%
- growth at 1 µM [32]: 104%
- growth at 0.01 µM [13]: 97%
- GI50 [14]: 4.35 µM
- TGI [14]: 9.66 µM
- CC50 [14]: 21.5 µM
- growth at 0.1 µM [33]: 99%
- growth at 0.01 µM [34]: 98%
- GI50 [15]: 4.51 µM
- TGI [15]: 9.45 µM
- CC50 [15]: 19.8 µM
- growth at 0.1 µM [35]: 91%
- growth at 0.1 µM [17]: 100%
- growth at 0.01 µM [18]: 100%
- growth at 0.01 µM [36]: 83%
- growth at 0.1 µM [19]: 100%
- growth at 100 µM [37]: -50%
- growth at 100 µM [20]: 23%
- growth at 100 µM [21]: 37%
- growth at 0.1 µM [22]: 86%
- growth at 0.1 µM [23]: 91%
- growth at 0.01 µM [24]: 96%
- growth at 0.01 µM [25]: 94%
- growth at 0.01 µM [26]: 102%
- growth at 1 µM [27]: 93%
- growth at 100 µM [28]: -62%
